Here are results for 65 molecules from PubChem BioAssay AID1417 (Emory University Molecular Libraries Screening Center, 2008).

As a reminder, the IC50 is the concentration at which inhibition is half-maximal. Read a low IC50 as higher potency.

The assay deals with Induced myeloid leukemia cell differentiation protein Mcl-1 (Homo sapiens) (UniProt Q07820). Kind of assay: Mcl-1/Noxa binding inhibitor potency, dose response, biochemical, TR-FRET (AID 1417). To be noted: Mcl-1/Noxa peptide interaction, cell-free TR-FRET (terbium/rhodamine), 2 h; measured here: absolute IC50. In general terms: In TR-FRET formats the signal depends on donor and acceptor labels being close together.
Induced myeloid leukemia cell differentiation protein Mcl-1 (Homo sapiens), sequence (Q07820 whole entry, looked up): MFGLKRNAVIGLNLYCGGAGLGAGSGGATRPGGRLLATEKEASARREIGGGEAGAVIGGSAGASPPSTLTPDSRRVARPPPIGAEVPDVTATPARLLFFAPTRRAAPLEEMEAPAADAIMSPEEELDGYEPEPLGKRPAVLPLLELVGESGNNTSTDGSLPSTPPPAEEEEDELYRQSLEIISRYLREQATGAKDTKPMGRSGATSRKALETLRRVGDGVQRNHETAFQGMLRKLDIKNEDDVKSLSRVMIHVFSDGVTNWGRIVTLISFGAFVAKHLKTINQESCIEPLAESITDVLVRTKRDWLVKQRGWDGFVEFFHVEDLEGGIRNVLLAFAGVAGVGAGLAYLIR
As to `CNc1ccc(Br)cc(C(=O)/C=C/c2ccc(Cl)cc2Cl)c1=O`, the IC50 was 1.41 µM.
The value for `O=C(O)c1ccc(N/N=C/c2ccc(-c3ccc(Cl)cc3Cl)o2)cc1` was 4.36 µM; that for `COc1ccccc1NC(=O)C(=O)N/N=C/c1ccc([N+](=O)[O-])s1` was 6.17 µM; that for `O=c1/c(=C/c2ccc(O)c([N+](=O)[O-])c2)sc2nc3ccccc3n12` was 4.26 µM.
The figure for `O=C(Nc1ccccc1Cl)c1cnccn1` is above 54 µM.
The figure for `O=[N+]([O-])c1cccc(S(=O)(=O)Nc2nc3ccccc3nc2Nc2cccc(S(=O)(=O)N3CCCCC3)c2)c1` is 3.75 µM; for `NC(=S)n1[nH]c(-c2ccc([N+](=O)[O-])cc2)c(N=Nc2cccc([N+](=O)[O-])c2)c1=O` it is 1.65 µM; for `CCN(CC)c1ccc(NC2=C(Cl)C(=O)c3ccccc3C2=O)cc1` it is below 0.4 µM.
Turning to `COc1cccc(NS(=O)(=O)c2ccc3c(c2)C2C=CCC2C(c2ccc(C(=O)O)cc2)N3)c1` (stereo not given), the IC50 was 1.02 µM.
The figure for `O=C(/C=C/c1ccco1)Nc1ccc2nn(-c3ccccc3)nc2c1` is 3.24 µM; for `NC(=O)c1c(NC(=O)CSc2nnc(-c3ccco3)n2-c2ccccc2)sc2c1CCC2` it is 5.75 µM; for `O=C(Nc1cccc(S(=O)(=O)N2CCOCC2)c1)c1c2c(nc3ccccc13)CCC2` it is 3.08 µM.
The figure for `CCOC(=O)NNc1ccc2nonc2c1[N+](=O)[O-]` is below 0.4 µM; for `COc1ccc(NC(=O)CSc2ncnc3c2sc2ccccc23)c(OC)c1` it is above 54 µM.
Molecule `COC(=O)[C@@]1(Cc2ccccc2)[C@H]2c3cc(C(=O)N4CCCC4)n(CCSCCO)c3C[C@H]2CN1C(=O)c1ccccc1` yielded a half-maximal inhibitory concentration (IC50) above 54 µM.
The value for `Cc1cccc2cc(/C=N/NC(=O)c3ccccc3O)c(Cl)nc12` was 6.09 µM; that for `Cc1cc(C)c2c(c1)C1C=CCC1C(c1ccc(S(=O)(=O)N3CCOCC3)cc1)N2` (stereo not given) was 2.05 µM; that for `CCN(CC)S(=O)(=O)c1cccc(C(=O)N/N=C/c2ccc(O)c(O)c2O)c1` was below 0.4 µM.
The figure for `CN(C)c1ccc(/C=C/c2ccc3c4ccccc4ccc3[n+]2-c2ccccc2)cc1` is above 54 µM.
The value for `O=C1NN(c2ccccc2)C(=O)/C1=C\c1ccc(-c2cc([N+](=O)[O-])ccc2O)o1` was 9.71 µM; that for `O=C(/C=C/c1ccc(O)c(O)c1)O[C@H](Cc1ccc(O)c(O)c1)C(=O)O` was below 0.4 µM; that for `O=C(Nc1nccs1)c1cc(-c2ccco2)nc2ccccc12` was 1.4 µM.
In the case of `COc1ccccc1C(=O)N=Nc1c(O)[nH]c2ccc([N+](=O)[O-])cc12`, the IC50 came to 4.72 µM.
Molecule `COc1ccc(C(CC(=O)N2CCCC2)c2c(OC)cc(OC)c3c(-c4ccccc4)cc(=O)oc23)cc1` (stereo not given) returned an IC50 of 3.89 µM.
The figure for `CCC(C)NCCCOc1c(C)cc(C)cc1Br` (stereo not given) is above 54 µM; for `C=C(C)C(=O)Nc1cccc(C2=NOC3(C2)C[C@@H](C(N)=O)N(C(=O)c2cc([N+](=O)[O-])cc([N+](=O)[O-])c2C)C3)c1` (stereo not given in full) it is 4.09 µM.
The value for `Cc1ccc(-n2cccc2/C=C2/C(=N)N3C(=NC2=O)SN=C3S(C)(=O)=O)cc1` was 5.4 µM; that for `Cc1ccc(/C=C/C(=O)Nc2ccc(N(C)C)cc2)o1` was below 0.4 µM.
The value for `O=C1SC(SCc2ccccc2Cl)=N/C1=C\c1ccc(C(=O)O)cc1` was 4.67 µM; that for `O=C(O)CCC(=O)NCCC1=c2ccccc2=N/C1=C\c1c(O)n(Cc2ccc(F)cc2)c(=S)[nH]c1=O` was below 0.4 µM.
For the molecule `COC(=O)C1=Nc2ccccc2/C1=C\c1c(O)n(-c2ccc(Br)cc2)c(=O)[nH]c1=O`, the IC50 was determined as 7.49 µM.
Molecule `O=C(O)c1ccccc1-c1ccc(/C=c2\sc3nc4cc(Br)cnc4n3c2=O)o1` yielded an IC50 of 3.09 µM.
In turn, `CNc1ccc(Br)cc(C(=O)/C=C/c2cccc(OC)c2)c1=O` displayed an IC50 of 4.9 µM.
The figure for `CCOC(=O)c1c(C)oc2c1c(C(c1cccnc1)N1CCOCC1)c(O)c1ccccc12` (stereo not given) is below 0.4 µM; for `COC(=O)c1cc(-c2ccc(C)o2)nc2ccccc12` it is 14.8 µM.
The value for `Cc1cccc(-c2nc(Nc3ccc(N4CCOCC4)cc3)c3ccccc3n2)c1` was below 0.4 µM.
The figure for `COC(=O)c1ccc2nc(Nc3nc4c(F)cc(F)cc4s3)sc2c1` is below 0.4 µM.
On to `CCCc1ccc(/C=C2\C(=O)c3ccccc3C(O)=C2C(=O)OCC)cc1`, for which the IC50 is above 54 µM.
The figure for `O=C(Nc1cccc(S(=O)(=O)NC2=NCCC2)c1)c1cc(-c2ccco2)nc2ccccc12` is below 0.4 µM; for `Nc1ccc2c(c1Cl)C(=O)c1ccc(N)c(Cl)c1C2=O` it is below 0.4 µM; for `O=C(Nc1ccc(N2CCOCC2)cc1)Nc1ccc(Cl)c(Cl)c1` it is above 54 µM.
In turn, `Oc1cc2c(cc1O)C1c3ccc(O)c(O)c3OCC1(O)C2` (stereo not given) displayed a half-inhibitory concentration (IC50) below 0.4 µM.
The figure for `Cc1n[nH]c(=S)n(NC(=O)/C=C/C(=O)Nn2c(=S)[nH]nc(C)c2=O)c1=O` is below 0.4 µM.
The figure for `O=[N+]([O-])c1cc(Cl)cc(/C=N/NC(=S)Nc2ccc(S(=O)(=O)N3CCOCC3)cc2)c1O` is below 0.4 µM.
The figure for `O=C1/C(=C\c2ccccn2)SC(=S)N1c1ccc(S(=O)(=O)Nc2nccs2)cc1` is 2.69 µM; for `Cc1ccc(/C=c2\sc3nc(-c4ccco4)nn3c2=O)o1` it is 6.14 µM.
The molecule `O=[N+]([O-])c1ccc(N/N=C/c2ccc(O)c(O)c2O)c(S(=O)(=O)N2CCOCC2)c1` came in with an IC50 below 0.4 µM.
The figure for `CCOC(=O)CSc1nnc2n1C(C)(C)Cc1ccccc1-2` is above 54 µM; for `CCNc1ccc(Br)cc(C(=O)/C=C/c2c(Cl)cccc2Cl)c1=O` it is 1.8 µM; for `CC(=O)Nc1ccc(C2=NNC(=Nc3ccc(S(=O)(=O)N4CCOCC4)cc3)SC2)cc1` it is below 0.4 µM.
The figure for `CC(C)(C)c1ccc(CN2N=Nc3ccccc3S2(=O)=O)cc1` is 18.9 µM.
The value for `CN1CCC(N(C)c2nc(-c3ccc([N+](=O)[O-])cc3)nc3ccccc23)CC1` was below 0.4 µM; that for `COc1cc(C(c2nnnn2C2CCCC2)N2CCc3ccccc3C2)ccc1O` (stereo not given) was below 0.4 µM.
With `CN(C)c1ccc(NC(=O)c2cccc(C(=O)Nc3ccc(N(C)C)cc3)n2)cc1`, the IC50 worked out at 4.03 µM.
The value for `O=C(O)c1ccc(N/N=C/C2=C(N3CCOCC3)C(=C\c3ccccc3)/CC2)cc1` was 2.02 µM; that for `O=[N+]([O-])c1ccc(-c2c[nH]c(=S)[nH]2)cc1` was 0.8 µM.
The value for `COc1ccc(-c2cnnc(N/N=C/c3ccc(O)cc3)n2)cc1` was 8.41 µM.
The value for `COc1ccc(N2CCC(CNC(=O)Nc3cccc(OC)c3)C2)cc1` (stereo not given) was above 54 µM; that for `O=C(N/N=C/c1ccncc1)c1cc([N+](=O)[O-])cc([N+](=O)[O-])c1O` was 2.49 µM.
In turn, `CCOC(=O)CSc1nc(N)c(C(=O)Nc2ccc(N(C)C)cc2)s1` showed an IC50 of 0.523 µM.
Regarding `O=C(O)c1ccc(-n2cccc2/C=C2/NC(=O)N(c3ccccc3)C2=O)cc1`, the IC50 was determined as 3.33 µM.
Consider `Cn1cc(C(=O)N/N=C/c2ccc([N+](=O)[O-])cc2)c2ccccc21`, for which the IC50 amounted to 3.04 µM.
The figure for `O=[N+]([O-])c1cc(Br)c(O)c(/C=N/Nc2nc3ccccc3s2)c1` is below 0.4 µM; for `COc1cccc2c(=O)c3cccc(N)c3[nH]c12` it is above 54 µM.
In turn, `Cc1ccc(NC(=O)CN2C(=O)N/C(=C/c3cc(C)n(-c4ccc(C(=O)O)cc4)c3C)C2=O)cc1` gave an IC50 of 5.14 µM.
